# Laboratory results taken from patent publication EP4631959A2, “NOVEL MINIGASTRIN-DERIVED CHOLECYSTOKININ 2 RECEPTOR BINDING MOLECULES FOR IMAGING AND TARGETED RADIOTHERAPY” (priority 2022, dated 2024).
# Read-outs that look alike come from different tables or passages of the source. Starred links: 1 amine or outer side, 2 acyl side, 3 side chain; linkers in the order of their positions; H or OH if unused. Non-standard residues stand in square brackets, D forms with d. Residues, ends and D or L forms follow the SMILES beside them. *: point of attachment. DOTA = O=C(O)CN1CCN(CC(=O)O)CCN(CC(=O)*)CCN(CC(=O)O)CC1; PEG12 = NCCOCCOCCOCCOCCOCCOCCOCCOCCOCCOCCOCCOCCC(=O)O; d(γGlu) = O=C(O)[C@@H](CCC(=O)[*:2])N[*:1]; PEG8 = NCCOCCOCCOCCOCCOCCOCCOCCOCCC(=O)O; 1Nal = N[C@@H](Cc1cccc2ccccc12)C(=O)O; NMeNle = CCCC[C@H](NC)C(=O)O; Nle = CCCC[C@H](N)C(=O)O
# Legend:
# [1] = n-Octanol-PBS distribution coefficient (logD7.4); assay type: physicochemical; details: pH = 7.4, ^177Lu-labeled
# Method: Approximately 1 MBq of the labeled tracer was dissolved in 1 mL of a 1/1 mixture (v/v) of phosphate buffered saline (PBS, pH = 7.4) and n-octanol in an Eppendorf tube (1.5 mL). After vigorous mixing of the suspension for 3 min at rt, the vial was centrifuged at 9,000 rpm for 5 min (Biofuge 15, Heraeus Sepatech, Osterode, Germany) and 200 µL aliquots of both layers were measured in a γ-counter. The experiment was repeated at least five times.
# [2] = target: T1, CCK-2R (Rattus norvegicus, UniProt P30553); experiment: Determination of IC50: CCK-2R affinity on AR4-2J cells, competition with [^177Lu]Lu-DOTA-PP-F11N; assay type: binding; details: for IC50: AR4-2J cells
# T1 construct: The CCK-2R expressing rat pancreatic tumor cells AR4-2J; host or cells: AR4-2J rat pancreatic tumor cells
# T1 sequence (P30553 1-452): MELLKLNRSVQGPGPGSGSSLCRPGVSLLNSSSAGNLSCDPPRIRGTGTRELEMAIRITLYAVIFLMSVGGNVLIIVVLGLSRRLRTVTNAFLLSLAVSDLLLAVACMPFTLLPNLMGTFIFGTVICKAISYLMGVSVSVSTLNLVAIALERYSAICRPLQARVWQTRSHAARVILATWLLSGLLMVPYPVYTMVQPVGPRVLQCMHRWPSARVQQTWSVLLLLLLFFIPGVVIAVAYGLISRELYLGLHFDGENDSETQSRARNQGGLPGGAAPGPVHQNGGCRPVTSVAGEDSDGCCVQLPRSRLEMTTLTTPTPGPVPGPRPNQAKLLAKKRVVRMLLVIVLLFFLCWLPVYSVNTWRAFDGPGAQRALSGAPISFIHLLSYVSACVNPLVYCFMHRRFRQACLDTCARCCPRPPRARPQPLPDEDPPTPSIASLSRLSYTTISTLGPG
# Method: AR4-2J cells were harvested 24 ± 2 h before the experiment and seeded in 24-well plates (2.0 × 10^5 cells in 1 mL/well). After removal of the nutrient medium (RPMI 1640, 5 mM L-Gln, 5 mL non-essential amino acids (100×), 10% FCS), the cells were washed once with 500 µL PBS. Thereafter, 200 µL nutrient medium (5% BSA, v/v) were added. Next, 25 µL per well of solutions containing either nutrient medium (5% BSA, v/v) as control or the respective compound in increasing concentration (10^-10 - 10^-4 M), were added with subsequent addition of 25 µL [^177Lu]Lu-DOTA-PP-F11N (0.3 pmol/well).
# All experiments were performed in triplicate for each concentration. After 3 h incubation at 37 °C, the experiment was terminated by removal of the medium and consecutive rinsing with 300 µL PBS. The media of both steps were combined in one fraction and represent the amount of free radiolabeled reference. Afterwards, the cells were lysed with 300 µL of 1 M NaOH for at least 15 min and united with the 300 µL NaOH of the following washing step. Quantification of bound and free radiolabeled reference was accomplished in a γ-counter. IC50 determination for each conjugate was repeated twice.
# [3] = ^natLu-labeled, read-out: IC50 [nM] (n = 3), ^natLu-labeled
# [4] = read-out: IC50 [nM] (n = 3), ^natLu-labeled, ^natLu-labeled
Compound,"logD7.4 (n ≥ 5), ^177Lu-labeled [1]","IC50 [2, 3] [nM]","IC50 [2, 4] [nM]","IC50 ([2]; references ^natLu-labeled, other peptides without chelator, read-out: IC50 [nM] (n = 3))","IC50 value, fold lower than [^natLu]Lu-DOTA-PP-F11N ([2]; ^natLu-labeled) [fold]"
"CCCC[C@@H](C(=O)N[C@@H](CC(=O)O)C(=O)N[C@@H](Cc1cccc2ccccc12)C(N)=O)N(C)C(=O)[C@H](Cc1c[nH]c2ccccc12)NC(=O)CCOCCOCCOCCOCCOCCOCCOCCOCCNC(=O)CC[C@@H](NC(=O)CN1CCN(CC(=O)O)CCN(CC(=O)O)CCN(CC(=O)O)CC1)C(=O)O [DOTA-CCK-80, DOTA-γ-glu-(PEG)7-Trp-(N-Me)Nle-Asp-1-Nal-NH2] ({DOTA-d(γGlu)-PEG8}-W[NMeNle]D[1Nal]-NH2)",−2.51 ± 0.09,7.9 ± 0.2,,,
"CCCC[C@@H](C(=O)N[C@@H](CC(=O)O)C(=O)N[C@@H](Cc1cccc2ccccc12)C(N)=O)N(C)C(=O)[C@H](Cc1c[nH]c2ccccc12)NC(=O)CCOCCOCCOCCOCCOCCOCCOCCOCCOCCOCCOCCOCCNC(=O)CC[C@@H](NC(=O)CN1CCN(CC(=O)O)CCN(CC(=O)O)CCN(CC(=O)O)CC1)C(=O)O [DOTA-CCK-81, DOTA-γ-glu-(PEG)11-Trp-(N-Me)Nle-Asp-1-Nal-NH2] ({DOTA-d(γGlu)-PEG12}-W[NMeNle]D[1Nal]-NH2)",−2.47 ± 0.10,6.3 ± 0.7,,,
CCCC[C@H](NC(=O)[C@H](Cc1c[nH]c2ccccc12)NC(=O)CNC(=O)[C@H](Cc1ccc(O)cc1)NC(=O)[C@H](C)NC(=O)CC[C@@H](NC(=O)CC[C@@H](NC(=O)CC[C@@H](NC(=O)CC[C@@H](NC(=O)CC[C@@H](NC(=O)CC[C@@H](NC(=O)[C@@H](CNC(=O)c1ccc([Si](F)(C(C)(C)C)C(C)(C)C)cc1)NC(=O)CN1CCN(CC(=O)O)CCN(CC(=O)O)CCN(CC(=O)O)CC1)C(=O)O)C(=O)O)C(=O)O)C(=O)O)C(=O)O)C(=O)O)C(=O)N[C@@H](CC(=O)O)C(=O)N[C@@H](Cc1ccccc1)C(N)=O [DOTA-MG-SiFA-19],−2.70 ± 0.09,7.54 ± 0.26,,,
"CCCC[C@H](NC(=O)[C@H](Cc1c[nH]c2ccccc12)NC(=O)CNC(=O)[C@H](Cc1ccc(O)cc1)NC(=O)[C@H](C)NC(=O)CC[C@@H](NC(=O)CC[C@@H](NC(=O)CC[C@@H](NC(=O)CC[C@@H](NC(=O)CC[C@@H](NC(=O)CC[C@@H](NC(=O)CC[C@@H](NC(=O)CC[C@@H](CO)NC(=O)[C@@H](CNC(=O)c1ccc([Si](F)(C(C)(C)C)C(C)(C)C)cc1)NC(=O)CN1CCN(CC(=O)O)CCN(CC(=O)O)CCN(CC(=O)O)CC1)C(=O)O)C(=O)O)C(=O)O)C(=O)O)C(=O)O)C(=O)O)C(=O)O)C(=O)N[C@@H](CC(=O)O)C(=O)N[C@@H](Cc1ccccc1)C(N)=O [DOTA-MG-SiFA-29, DOTA-dap(SiFA)-Glutamol-(γ-glu)7-F11N]",−1.88 ± 0.07,,6.55 ± 1.23,,
"CCCC[C@@H](C(=O)N[C@@H](CC(=O)O)C(=O)N[C@@H](Cc1cccc2ccccc12)C(N)=O)N(C)C(=O)[C@H](Cc1c[nH]c2ccccc12)NC(=O)CNC(=O)[C@H](Cc1ccc(O)cc1)NC(=O)[C@H](C)NC(=O)CC[C@@H](NC(=O)CC[C@@H](NC(=O)CC[C@@H](NC(=O)CC[C@@H](NC(=O)CC[C@@H](NC(=O)CC[C@@H](NC(=O)CC[C@@H](NC(=O)CC[C@@H](NC(=O)[C@@H](CNC(=O)c1ccc([Si](F)(C(C)(C)C)C(C)(C)C)cc1)NC(=O)CN1CCN(CC(=O)O)CCN(CC(=O)O)CCN(CC(=O)O)CC1)C(=O)O)C(=O)O)C(=O)O)C(=O)O)C(=O)O)C(=O)O)C(=O)O)C(=O)O [DOTA-MG-SiFA-40, DOTA-dap(SiFA)-(γ-glu)8-MGS5]",−1.83 ± 0.04,,8.27 ± 0.35,,
"CCCC[C@H](NC(=O)[C@H](Cc1c[nH]c2ccccc12)NC(=O)CNC(=O)[C@H](Cc1ccc(O)cc1)NC(=O)[C@H](C)NC(=O)CC[C@@H](NC(=O)CC[C@@H](NC(=O)CC[C@@H](NC(=O)CC[C@@H](NC(=O)CC[C@@H](NC(=O)CC[C@@H](NC(=O)CC[C@@H](NC(=O)CCCNC(=O)[C@@H](CNC(=O)c1ccc([Si](F)(C(C)(C)C)C(C)(C)C)cc1)NC(=O)CN1CCN(CC(=O)O)CCN(CC(=O)O)CCN(CC(=O)O)CC1)C(=O)O)C(=O)O)C(=O)O)C(=O)O)C(=O)O)C(=O)O)C(=O)O)C(=O)N[C@@H](CC(=O)O)C(=O)N[C@@H](Cc1ccccc1)C(N)=O [DOTA-MG-SiFA-44, DOTA(-dap(SiFA)-GABA-(γ-glu)7-F11N]",−2.01 ± 0.07,,3.47 ± 0.27,,
"CCCC[C@H](NC(=O)[C@H](Cc1c[nH]c2ccccc12)NC(=O)CNC(=O)[C@H](Cc1ccc(O)cc1)NC(=O)[C@H](C)NC(=O)CC[C@@H](NC(=O)CC[C@@H](NC(=O)CC[C@@H](NC(=O)CC[C@@H](NC(=O)CC[C@@H](NC(=O)CC[C@@H](NC(=O)CCCNC(=O)CCCNC(=O)[C@@H](CNC(=O)c1ccc([Si](F)(C(C)(C)C)C(C)(C)C)cc1)NC(=O)CN1CCN(CC(=O)O)CCN(CC(=O)O)CCN(CC(=O)O)CC1)C(=O)O)C(=O)O)C(=O)O)C(=O)O)C(=O)O)C(=O)O)C(=O)N[C@@H](CC(=O)O)C(=O)N[C@@H](Cc1ccccc1)C(N)=O [DOTA-MG-SiFA-45, DOTA-dap(SiFA)-(GABA)2-(γ-glu)6-F11N]",−1.98 ± 0.02,,3.15 ± 0.12,,
"CCCC[C@H](NC(=O)[C@H](Cc1c[nH]c2ccccc12)NC(=O)CNC(=O)[C@H](Cc1ccc(O)cc1)NC(=O)[C@H](C)NC(=O)CC[C@@H](NC(=O)CC[C@@H](NC(=O)CC[C@@H](NC(=O)CC[C@@H](NC(=O)CC[C@@H](NC(=O)CCCNC(=O)CCCNC(=O)CCCNC(=O)[C@@H](CNC(=O)c1ccc([Si](F)(C(C)(C)C)C(C)(C)C)cc1)NC(=O)CN1CCN(CC(=O)O)CCN(CC(=O)O)CCN(CC(=O)O)CC1)C(=O)O)C(=O)O)C(=O)O)C(=O)O)C(=O)O)C(=O)N[C@@H](CC(=O)O)C(=O)N[C@@H](Cc1ccccc1)C(N)=O [DOTA-MG-SiFA-46, DOTA-dap(SiFA)-(GABA)3-(γ-glu)5-F11N]",−2.09 ± 0.07,,5.52 ± 0.25,,
"CCCC[C@H](NC(=O)[C@H](Cc1c[nH]c2ccccc12)NC(=O)CNC(=O)[C@H](Cc1ccc(O)cc1)NC(=O)[C@H](C)NC(=O)CC[C@@H](NC(=O)CCCNC(=O)CC[C@@H](NC(=O)CCCNC(=O)CC[C@@H](NC(=O)CCCNC(=O)CC[C@@H](NC(=O)CCCNC(=O)[C@@H](CNC(=O)c1ccc([Si](F)(C(C)(C)C)C(C)(C)C)cc1)NC(=O)CN1CCN(CC(=O)O)CCN(CC(=O)O)CCN(CC(=O)O)CC1)C(=O)O)C(=O)O)C(=O)O)C(=O)O)C(=O)N[C@@H](CC(=O)O)C(=O)N[C@@H](Cc1ccccc1)C(N)=O [DOTA-MG-SiFA-47, DOTA-dap(SiFA)-(GABA-γ-glu)4-F11N]",−1.93 ± 0.08,,6.77 ± 1.01,,
"CCCC[C@H](NC(=O)[C@H](Cc1c[nH]c2ccccc12)NC(=O)CNC(=O)[C@H](Cc1ccc(O)cc1)NC(=O)[C@H](C)NC(=O)CC[C@@H](NC(=O)CC[C@@H](NC(=O)CC[C@@H](NC(=O)CC[C@@H](NC(=O)CC[C@@H](NC(=O)CC[C@@H](NC(=O)CN1CCN(CC(=O)O)CCN(CC(=O)O)CCN(CC(=O)O)CC1)C(=O)O)C(=O)O)C(=O)O)C(=O)O)C(=O)O)C(=O)O)C(=O)N[C@@H](CC(=O)O)C(=O)N[C@@H](Cc1ccccc1)C(N)=O [DOTA-PP-γ-F11N, DOTA-γ-glu^1-γ-glu^2-γ-glu^3-γ-glu^4-γ-glu^5-γ-glu^6-Ala^7-Tyr^8-Gly^9-Trp^10-Nle^11-Asp^12-Phe^13-NH2, reference compound] ({DOTA-d(γGlu)-d(γGlu)-d(γGlu)-d(γGlu)-d(γGlu)-d(γGlu)}-AYGW[Nle]DF-NH2)",−4.38 ± 0.05,,,7.5 ± 0.5,1.7
